The source of these data is patent US20260015350A1, “AZAQUINAZOLINE PAN-KRAS INHIBITORS” (Mirati Therapeutics, Inc., priority 2022, published 2026).

Broadly, the IC50 is the point on the concentration scale where inhibition reaches its midpoint. Low values mean greater potency, high ones weaker potency. In general, inhibition refers to how much of the control response was suppressed. Lower therefore signals a response near the control.

The subject of assay [1] is KRas-mediated phosphorylation of ERK in AsPC-1 cells. As to the kind of experiment: Inhibition of KRas-mediated phosphorylation of ERK (Cisbio HTRF pERK), AsPC-1 cells. The assay is classed as cell-based. The settings on record: Homo sapiens, ASPC1, AsPC-1 cells; HTRF pERK. The method, boiled down:
(§1)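 Using 6,000 cells per well, compounds are applied for 3 hrs and cells then lysed at 4° C with shaking for 40 mins. Phospho-ERK is measured by HTRF after 2 hrs of lysate incubation with the d2/Cryptate antibody mixture.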
A general note: In TR-FRET formats the signal depends on donor and acceptor labels being close together.

Assay [2] relates to KRas-mediated phosphorylation of ERK in MKN1 cells. As to the kind of experiment: Inhibition of KRas-mediated phosphorylation of ERK (Cisbio HTRF pERK), MKN1 cells. The assay is classed as cell-based. The settings on record: Homo sapiens, MKN-1. In short, it runs like this: (§2)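 Seeding density was 6,000 cells/well; medium RPMI, 10% FBS. Read-out by homogeneous time-resolved fluorescence (pERK) after 4 hours covered at room temperature.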

The target in assay [3] is T1, KRas^G12V (Homo sapiens, UniProt P01116, G12V).
T1 construct: Biotinylated KRas (corresponding to amino acids 1-169, produced at Accelegan Inc.); biotin (biotinylated); purchased Accelegan Inc
As to the kind of experiment: KRas binding assay (TR-FRET tracer displacement), KRas G12V.

In assay [4] the target is T2, KRas^G12S (Homo sapiens, UniProt P01116, G12S).
T2 construct: Biotinylated KRas (corresponding to amino acids 1-169, produced at Accelegan Inc.); biotin (biotinylated); purchased Accelegan Inc
As to the kind of experiment: KRas binding assay (TR-FRET tracer displacement), KRas G12S. The settings on record: single point, 10 nM compound, TR-FRET.

In assay [5] the target is T3, KRas^G12D (Homo sapiens, UniProt P01116, G12D).
T3 construct: Biotinylated KRas (corresponding to amino acids 1-169, produced at Accelegan Inc.); biotin (biotinylated); purchased Accelegan Inc
As to the kind of experiment: KRas binding assay (TR-FRET tracer displacement), KRas G12D.

Assay [6] has as its target T4, KRas^G12C (Homo sapiens, UniProt P01116, G12C).
T4 construct: Biotinylated KRas (corresponding to amino acids 1-169, produced at Accelegan Inc.); biotin (biotinylated); purchased Accelegan Inc
As to the kind of experiment: KRas binding assay (TR-FRET tracer displacement), KRas G12C. The settings on record: single point, 10 nM compound, TR-FRET.

Assay [7] relates to KRas-mediated phosphorylation of ERK in A549 cells. As to the kind of experiment: Inhibition of KRas-mediated phosphorylation of ERK (Cisbio HTRF pERK), A549 cells. The settings on record: Homo sapiens, HTRF pERK. The assay is classed as cell-based. In short, it runs like this: (§3)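 Cells were seeded at 6,000 per well and treated for 3 hrs with compound in a 10-dose, 3-fold series from 10 uM (0.8% final DMSO), with 0.2 uM Trametinib as Min control. Lysates made at 4° C over 40 mins were incubated 2 hrs at room temperature with d2- and Cryptate-labelled antibodies, then read by HTRF.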

Assay [8] deals with T5, KRas^G13D (Homo sapiens, UniProt P01116, G13D).
T5 construct: Biotinylated KRas (corresponding to amino acids 1-169, produced at Accelegan Inc.); biotin (biotinylated); purchased Accelegan Inc
As to the kind of experiment: KRas binding assay (TR-FRET tracer displacement), KRas G13D. The settings on record: single point, 10 nM compound, TR-FRET.

Assay [9] relates to KRas-mediated phosphorylation of ERK in HCT116 cells. As to the kind of experiment: Inhibition of KRas-mediated phosphorylation of ERK (Cisbio HTRF pERK), HCT116 cells. The assay is classed as cell-based. The settings on record: Homo sapiens; for IC50: HCT-116, HTRF pERK. The method, boiled down: as §3
The target of assay [10] is T6, KRas^Q61H (Homo sapiens, UniProt P01116, Q61H).
T6 construct: Biotinylated KRas (corresponding to amino acids 1-169, produced at Accelegan Inc.); biotin (biotinylated); purchased Accelegan Inc
As to the kind of experiment: KRas binding assay (TR-FRET tracer displacement), KRas Q61H. The note with it: single point, 10 nM compound, TR-FRET.

The target in assay [11] is T7, KRas^G12R (Homo sapiens, UniProt P01116, G12R).
T7 construct: Biotinylated KRas (corresponding to amino acids 1-169, produced at Accelegan Inc.); biotin (biotinylated); purchased Accelegan Inc
As to the kind of experiment: KRas binding assay (TR-FRET tracer displacement), KRas G12R.

Assay [12] addresses T8, KRas^G12A (Homo sapiens, UniProt P01116, G12A).
T8 construct: Biotinylated KRas (corresponding to amino acids 1-169, produced at Accelegan Inc.); biotin (biotinylated); purchased Accelegan Inc
As to the kind of experiment: KRas binding assay (TR-FRET tracer displacement), KRas G12A. The settings on record: single point, 10 nM compound, TR-FRET.

The subject of assay [13] is KRas-mediated phosphorylation of ERK in H727 cells. As to the kind of experiment: Inhibition of KRas-mediated phosphorylation of ERK (Cisbio HTRF pERK), H727 cells. The settings on record: Homo sapiens, NCI-H727, H727 cells; HTRF pERK. The assay is classed as cell-based. In short, it runs like this:
as §1

Assay [14] addresses T9, KRas^WT (Homo sapiens, UniProt P01116).
T9 construct: Biotinylated KRas (corresponding to amino acids 1-169, produced at Accelegan Inc.); biotin (biotinylated); purchased Accelegan Inc
As to the kind of experiment: KRas binding assay (TR-FRET tracer displacement), KRas WT. The note with it: single point, 10 nM compound, TR-FRET.

Assay [15] deals with KRas-mediated phosphorylation of ERK in H460 cells. As to the kind of experiment: Inhibition of KRas-mediated phosphorylation of ERK (Cisbio HTRF pERK), H460 cells. The settings on record: Homo sapiens; for IC50: NCI-H460, HTRF pERK. The assay is classed as cell-based. In short, it runs like this: as §1
The subject of assay [16] is KRas-mediated phosphorylation of ERK in PSN1 cells. As to the kind of experiment: Inhibition of KRas-mediated phosphorylation of ERK (Cisbio HTRF pERK), PSN1 cells. The assay is classed as cell-based. The note with it: Homo sapiens. The method, boiled down:
as §2

T9 sequence (P01116 1-169 isoform P01116-2): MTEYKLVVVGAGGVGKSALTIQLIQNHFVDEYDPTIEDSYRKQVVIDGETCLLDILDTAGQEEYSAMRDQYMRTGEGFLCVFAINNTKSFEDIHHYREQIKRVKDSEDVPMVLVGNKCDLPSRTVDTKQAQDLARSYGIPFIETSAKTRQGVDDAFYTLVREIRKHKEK
T2 sequence (P01116 1-169 isoform P01116-2 G12S): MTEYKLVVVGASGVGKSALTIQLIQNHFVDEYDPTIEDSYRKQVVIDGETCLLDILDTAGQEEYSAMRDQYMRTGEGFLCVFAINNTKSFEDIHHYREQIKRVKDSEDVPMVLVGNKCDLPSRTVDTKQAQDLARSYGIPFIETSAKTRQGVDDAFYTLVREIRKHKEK
T7 sequence (P01116 1-169 isoform P01116-2 G12R): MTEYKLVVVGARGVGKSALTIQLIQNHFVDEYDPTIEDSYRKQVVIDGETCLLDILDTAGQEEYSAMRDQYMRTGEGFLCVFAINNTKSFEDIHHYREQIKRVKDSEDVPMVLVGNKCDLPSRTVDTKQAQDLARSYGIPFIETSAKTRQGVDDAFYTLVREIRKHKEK
T4 sequence (P01116 1-169 isoform P01116-2 G12C): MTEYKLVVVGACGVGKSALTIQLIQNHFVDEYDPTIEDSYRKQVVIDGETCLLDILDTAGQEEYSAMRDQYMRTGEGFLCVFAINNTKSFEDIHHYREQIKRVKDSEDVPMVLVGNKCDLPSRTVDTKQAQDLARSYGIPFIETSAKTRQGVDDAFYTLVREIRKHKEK
T1 sequence (P01116 1-169 isoform P01116-2 G12V): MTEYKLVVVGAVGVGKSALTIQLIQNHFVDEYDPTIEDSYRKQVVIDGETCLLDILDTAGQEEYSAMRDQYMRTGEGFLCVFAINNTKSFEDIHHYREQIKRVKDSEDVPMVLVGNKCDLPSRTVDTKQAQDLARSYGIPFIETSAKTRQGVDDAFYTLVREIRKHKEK
T5 sequence (P01116 1-169 isoform P01116-2 G13D): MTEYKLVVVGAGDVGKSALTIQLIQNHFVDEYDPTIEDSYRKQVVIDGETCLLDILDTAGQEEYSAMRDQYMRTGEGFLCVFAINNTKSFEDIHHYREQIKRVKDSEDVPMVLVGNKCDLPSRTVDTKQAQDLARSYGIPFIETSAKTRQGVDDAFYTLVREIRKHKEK
T8 sequence (P01116 1-169 isoform P01116-2 G12A): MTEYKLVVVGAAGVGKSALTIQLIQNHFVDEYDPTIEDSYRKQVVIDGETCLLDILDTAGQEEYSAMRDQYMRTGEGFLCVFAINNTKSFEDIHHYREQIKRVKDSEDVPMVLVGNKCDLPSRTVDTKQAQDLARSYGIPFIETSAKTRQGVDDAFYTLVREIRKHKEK
T3 sequence (P01116 1-169 isoform P01116-2 G12D): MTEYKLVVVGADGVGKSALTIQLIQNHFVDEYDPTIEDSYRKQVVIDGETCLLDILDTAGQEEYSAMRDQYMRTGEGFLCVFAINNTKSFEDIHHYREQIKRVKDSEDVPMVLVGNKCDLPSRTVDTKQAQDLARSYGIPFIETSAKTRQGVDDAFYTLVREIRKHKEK
T6 sequence (P01116 1-169 isoform P01116-2 Q61H): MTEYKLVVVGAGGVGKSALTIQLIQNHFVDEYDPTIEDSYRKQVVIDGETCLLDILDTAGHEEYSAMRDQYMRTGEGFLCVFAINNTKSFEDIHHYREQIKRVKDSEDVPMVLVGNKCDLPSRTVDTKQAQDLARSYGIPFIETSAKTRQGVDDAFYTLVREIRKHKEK

For the compound `CCc1c(F)ccc2cc(O)cc(-c3ncc4c(N5CCC(O)C(F)(F)CC5)nc(OC[C@@]56CCCN5C[C@H](F)C6)nc4c3F)c12` (stereo partly drawn) [Example 586, 1-(7-(8-ethyl-7-fluoro-3-hydroxynaphthalen-1-yl)-8-fluoro-2-(((2R,7aS)-2-fluorotetrahydro-1H-pyrrolizin-7a(5H)-yl)methoxy)pyrido[4,3-d]pyrimidin-4-yl)-5,5-difluoroazepan-4-ol], the IC50 in assay [1] worked out at 94 nM; in [2], 25 nM; in [3] it was 3 nM; in assay [5] it was 6 nM; in [7], 65 nM; in [11] it was 4 nM. The IC50 in assay [13] was 85 nM; in assay [16], 3770 nM. Besides, the inhibition at 0.01 µM stood at 93% in assay [4]; 93% in [6]; 93% in assay [8]; 90% in assay [10]; 91% in [12]; 91% in [14]. In addition, the inhibition at 0.1 µM amounted to 42% in [9] (HCT-116, 3 h, single point, 100 nM compound, 3 hrs) and 56% in assay [15] (NCI-H460, 3 h, single point, 100 nM compound, 3 hrs).

Turning to `CCc1c(F)ccc2cc(O)cc(-c3ncc4c(N5CCCC6(CC(O)C6)C5)nc(OCC5(CN(C)C)CC5)nc4c3F)c12` (stereo not drawn) [Example 698, 6-(2-((1-((dimethylamino)methyl)cyclopropyl)methoxy)-7-(8-ethyl-7-fluoro-3-hydroxynaphthalen-1-yl)-8-fluoropyrido[4,3-d]pyrimidin-4-yl)-6-azaspiro[3.5]nonan-2-ol], the IC50 is 87 nM in [1]; 17 nM in assay [2]; less than 2 nM in assay [3]; 2 nM in assay [5]; 141 nM in assay [7]; 188 nM in assay [9]. The IC50 in [11] was less than 2 nM; in assay [13], 68 nM; in assay [15], 72 nM; in assay [16], 4150 nM. In addition, the inhibition at 0.01 µM in [4] was found to be 86%; in assay [6] it was 91%; in assay [8] it was 84%; in assay [10] it was 88%; in [12], 77%; in assay [14] it was 82%.

Turning to `CCc1c(F)ccc2cc(O)cc(-c3ncc4c(N5CCC[C@@](C)(O)C5)nc(OC[C@@]56CCCN5[C@H](COC(=O)NC)CC6)nc4c3F)c12` [Example 706, ((3S,7aS)-7a-(((7-(8-ethyl-7-fluoro-3-hydroxynaphthalen-1-yl)-8-fluoro-4-((R)-3-hydroxy-3-methylpiperidin-1-yl)pyrido[4,3-d]pyrimidin-2-yl)oxy)methyl)hexahydro-1H-pyrrolizin-3-yl)methyl methylcarbamate], the IC50 in assay [1] is 45 nM; in assay [2] it was 9 nM; in [3], less than 2 nM; in assay [5], 3 nM; in assay [7] it was 112 nM; in [9] it was 85 nM. Besides, the IC50 was 2 nM in assay [11], 83 nM in assay [13], 39 nM in [15] and 2780 nM in assay [16]. For the same compound, the inhibition at 0.01 µM was found to be 85% in assay [4]; 89% in [6]; 89% in [8]; 88% in [10]; 82% in assay [12]; 84% in assay [14].

Regarding `CCNC(=O)OC[C@@H]1CC[C@]2(COc3nc(N4CCC[C@@](C)(O)C4)c4cnc(-c5cc(O)cc6ccc(F)c(CC)c56)c(F)c4n3)CCCN12` [Example 717, ((3S,7aS)-7a-(((7-(8-ethyl-7-fluoro-3-hydroxynaphthalen-1-yl)-8-fluoro-4-((R)-3-hydroxy-3-methylpiperidin-1-yl)pyrido[4,3-d]pyrimidin-2-yl)oxy)methyl)hexahydro-1H-pyrrolizin-3-yl)methyl ethylcarbamate], the IC50 in assay [1] is 22 nM; in assay [2], 3 nM; in assay [3], less than 2 nM; in [5] it was less than 2 nM; in assay [7], 47 nM; in assay [9] it was 84 nM. Besides, the half-maximal inhibitory concentration (IC50) in [11] is less than 2 nM; in assay [13], 44 nM; in assay [15], 30 nM; in [16], 1820 nM. Besides, the inhibition at 0.01 µM in assay [4] was determined as 92%; in assay [6], 93%; in [8] it was 94%; in assay [10], 92%; in assay [12] it was 90%; in assay [14], 92%.

With `CCc1c(F)ccc2cc(O)cc(-c3ncc4c(N5CCC[C@@](C)(O)C5)nc(OC[C@@]56CCCN5[C@H](COC(=O)NC(C)C)CC6)nc4c3F)c12` [Example 718, ((3S,7aS)-7a-(((7-(8-ethyl-7-fluoro-3-hydroxynaphthalen-1-yl)-8-fluoro-4-((R)-3-hydroxy-3-methylpiperidin-1-yl)pyrido[4,3-d]pyrimidin-2-yl)oxy)methyl)hexahydro-1H-pyrrolizin-3-yl)methyl isopropylcarbamate], the IC50 in assay [1] is 17 nM; in assay [2] it was 2 nM; in [3] it was less than 2 nM; in [5], less than 2 nM; in assay [7], 37 nM; in assay [9] it was 58 nM. The IC50 in [11] is less than 2 nM; in assay [13], 43 nM; in assay [15] it was 29 nM; in assay [16], 1100 nM. Moreover, the inhibition at 0.01 µM in assay [4] was found to be 94%; in assay [6], 96%; in assay [8], 95%; in [10], 96%; in assay [12] it was 94%; in assay [14], 94%.

`CCc1c(F)ccc2cc(O)cc(-c3ncc4c(N5CCC[C@@](C)(O)C5)nc(OC[C@@]56CCCN5[C@H](COC(=O)N5CCCC5)CC6)nc4c3F)c12` [Example 719, ((3S,7aS)-7a-(((7-(8-ethyl-7-fluoro-3-hydroxynaphthalen-1-yl)-8-fluoro-4-((R)-3-hydroxy-3-methylpiperidin-1-yl)pyrido[4,3-d]pyrimidin-2-yl)oxy)methyl)hexahydro-1H-pyrrolizin-3-yl)methyl pyrrolidine-1-carboxylate]: the half-inhibitory concentration (IC50) is 7 nM in assay [1]; 1 nM in assay [2]; less than 2 nM in [3]; less than 2 nM in [5]; 7 nM in [7]; 23 nM in assay [9]. Besides, the IC50 in assay [11] was less than 2 nM; in [13], 23 nM; in assay [15] it was 8 nM; in assay [16], 518 nM. Also, the inhibition at 0.01 µM in [4] is 97%; in assay [6], 97%; in assay [8] it was 98%; in [10] it was 98%; in [12], 95%; in assay [14] it was 96%.
